Laboratory results as given in patent publication US20190350889A1, “Compositions And Methods Of Use Of Phorbol Esters In The Treatment Of Parkinson's Disease” (priority 2016, published 2019).

What was measured:
[1] = Dose ranging study: toxicity and side effects of different TPA doses administered clinically by i.v. infusion; assay type: in vivo, human
Protocol: TPA solution in a sterile syringe was injected into 200 ml of sterile saline and mixed well for i.v. infusion.
One mg TPA in solution was mixed well with 200 ml of sterile saline for intravenous infusion which was completed in 1 h at the rate of 16 μg/min. […] The above symptoms could be alleviated by giving the patients glucocorticoids. […] However, these side effects were short lived and reversible.
0.5 mg of TPA in solution was mixed well with 200 ml of saline for intravenous infusion which was completed in 1 h at the rate of 8 μg/min. […] Difficulty in breathing was not observed. The cardiac, hepatic, renal and pulmonary functions were all normal.
0.25 mg of TPA in solution was mixed well with 200 ml of saline for intravenous infusion which was completed in 1 h at the rate of 4 μg/min. […] The cardiac, hepatic, renal and pulmonary functions were all normal.

[2] = test system: HIV; conditions: MT-4 cells; Mekkawy et al. 2000; cited from earlier work
[3] = patients with bone marrow function depressed by chemotherapy; Han et al. 1998; cited from earlier work
[4] = polar organic solvents and water; cited from earlier work
[5] = 0.25 mg/patient x 4/week, i.v. infusion
[6] = 0.5 mg/patient x 2/week, i.v. infusion
[7] = 1 mg/patient/week, i.v. infusion
[8] = 1 mg/patient/week, i.v. infusion in 1 h at 16 μg/min

Compound | Hb in the urine [1, 5] | cardiac, hepatic, renal and pulmonary functions [1, 5] | difficulty in breathing [1, 5] | symptoms such as chills and fever ([1]; 0.25 mg/patient x 4/week, i.v. infusion in 1 h at 4 μg/min) | Hb in the urine [1, 6] | cardiac, hepatic, renal and pulmonary functions [1, 6] | difficulty in breathing [1, 6] | tolerability [1, 6] | Hb in the urine [1, 7] | bleeding [1, 7] | cardiac, hepatic, renal and pulmonary functions [1, 7] | difficulty in breathing [1, 7] | duration of chills [1, 8] | duration of fever [1, 8] [h] | fever: patients' temperature reached [1, 8] | onset of chills after TPA administration [1, 8] | local irritation ([1]; TPA application (reason for giving it by i.v. infusion)) | HIV-cytopathic effects [2] | circulating white blood cells and neutrophils [3] | solubility [4]
CCCCCCCCCCCCCC(=O)O[C@@H]1[C@@H](C)[C@@]2(O)[C@@H](C=C(CO)C[C@]3(O)C(=O)C(C)=C[C@@H]23)[C@@H]2C(C)(C)[C@]12OC(C)=O (stereo in doubt) [TPA, 12-O-tetradecanoylphorbol-13-acetate] | No Hb was detected in the urine | all normal | no patient suffered difficulty in breathing | also observed, but to a much lesser extent than with the higher dosages | Occasionally, Hb was detected in patients' urine | all normal | not observed | tolerated the lower dose more easily | Hb was detected in the urine | caused a minority of patients to bleed | all found to be normal | several patients suffered for a short period of time difficulty in breathing | about 30 min | 3 to 5 | 37.5-39.5 °C | One hour after TPA administration | strong local irritation | inhibit the HIV-cytopathic effects on MT-4 cells | cause an increase in circulating white blood cells and neutrophils | –
CC1=C[C@H]2[C@@]3(O)[C@H](C)[C@@H](O)[C@]4(O)[C@H]([C@@H]3C=C(CO)C[C@]2(O)C1=O)C4(C)C [Phorbol] | – | – | – | – | – | – | – | – | – | – | – | – | – | – | – | – | – | – | – | well soluble in most polar organic solvents and in water
